Results published in patent publication US9555039B2, “Piperidine derivatives and compositions for the inhibition of nicotinamide phosphoribosyltransferase (NAMPT)” (Forma TM, LLC., priority 2011, dated 2017).
Where two headings read alike, the source gives them in different places.

Assays:
[1] = molecular target: T1, Recombinant His-tagged NAMPT (Homo sapiens, UniProt P43490); test: Biochemical inhibition assay: NAMPT enzymatic reaction, NMN quantified by mass spectrometry; details: 33 nM NAMPT, 1 μM NAM, 100 μM PRPP, 30 minutes at room temperature, read-out: Biochem IC50
T1 construct: His; host or cells: E. coli
Method in brief: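 Reaction 30 min at room temperature with 1 μM NAM, 100 μM PRPP, 2.5 mM ATP (final), quenched with formic acid. NMN quantified by RapidFire electrospray MS, normalized to L-cystathionine; IC50 from percent inhibition versus DMSO.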

A2780 cells = test: In-vitro cell proliferation assay (SRB, 72 hours); format: cell-based; details: sulforhodamine B (SRB) assay
Method in brief: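 Viable cells measured by TCA fixation and SRB staining, absorbance 570 nm; % inhibition vs DMSO control after media-only background subtraction, interpolated between two bracketing concentrations.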

T1 sequence (P43490 whole entry): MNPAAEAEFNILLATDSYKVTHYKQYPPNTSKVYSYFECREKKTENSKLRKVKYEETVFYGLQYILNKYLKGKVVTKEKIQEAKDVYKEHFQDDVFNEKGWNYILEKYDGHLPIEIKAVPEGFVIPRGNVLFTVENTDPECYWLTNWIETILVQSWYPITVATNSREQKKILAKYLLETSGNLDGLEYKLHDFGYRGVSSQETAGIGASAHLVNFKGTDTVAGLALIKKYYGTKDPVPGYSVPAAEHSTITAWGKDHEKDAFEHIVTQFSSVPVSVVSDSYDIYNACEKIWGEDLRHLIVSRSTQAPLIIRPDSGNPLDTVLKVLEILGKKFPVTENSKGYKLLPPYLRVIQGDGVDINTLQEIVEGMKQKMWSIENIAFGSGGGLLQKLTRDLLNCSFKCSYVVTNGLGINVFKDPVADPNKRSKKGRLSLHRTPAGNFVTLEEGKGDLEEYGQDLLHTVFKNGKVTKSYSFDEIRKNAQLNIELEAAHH

Compound	IC50 ([1]; 2.5 mM ATP)	IC50 (A2780 cells; Homo sapiens)	IC50 ([1]; […] ATP)	IC50 (A2780 cells)
CC(C)c1ncoc1C(=O)N1CCC(CCCCNC(=O)c2cc3cnccc3[nH]2)CC1 [N-[4-(1-{[4-(propan-2-yl)-1,3-oxazol-5-yl]carbonyl}piperidin-4-yl)butyl]-1H-pyrrolo[3,2-c]pyridine-2-carboxamide]	30.4 nM	5.3 nM		
CC(C)c1ncoc1C(=O)N1CCC(CCCCNC(=O)c2ccc3nccn3c2)CC1 [N-[4-(1-{[4-(propan-2-yl)-1,3-oxazol-5-yl]carbonyl}piperidin-4-yl)butyl]imidazo[1,2-a]pyridine-6-carboxamide]	27.5 nM	8.2 nM		
CC(C)Oc1ccc(C(=O)N2CCC(CCCCNC(=O)c3cc4cnccc4[nH]3)CC2)cc1 [N-[4-(1-{[4-(propan-2-yloxy)phenyl]carbonyl}piperidin-4-yl)butyl]-1H-pyrrolo[3,2-c]pyridine-2-carboxamide]	93.7 nM	13.1 nM		
CC(C)Oc1ccc(C(=O)N2CCC(CCCCNC(=O)c3ccc4nccn4c3)CC2)cc1 [N-[4-(1-{[4-(propan-2-yloxy)phenyl]carbonyl}piperidin-4-yl)butyl]imidazo[1,2-a]pyridine-6-carboxamide]	55.2 nM	20.9 nM		
CC(C)Oc1ccc(C(=O)N2CCC(CCCCNC(=O)c3cc4ccncc4s3)CC2)cc1 [N-[4-(1-{[4-(propan-2-yloxy)phenyl]carbonyl}piperidin-4-yl)butyl]thieno[2,3-c]pyridine-2-carboxamide]	40 nM	100 to 1000 nM		
O=C(NCCCCC1CCN(S(=O)(=O)c2ccc(OC(F)(F)F)cc2)CC1)c1cc2cnccc2[nH]1 [N-[4-(1-{[4-(trifluoromethoxy)benzene]sulfonyl}piperidin-4-yl)butyl]-1H-pyrrolo[3,2-c]pyridine-2-carboxamide]			76 nM	27.2 nM
O=C(NCCCCC1CCN(C(=O)c2ccc(OC(F)(F)F)cc2)CC1)c1cc2cnccc2[nH]1 [N-[4-(1-{[4-(trifluoromethoxy)phenyl]carbonyl}piperidin-4-yl)butyl]-1H-pyrrolo[3,2-c]pyridine-2-carboxamide]	145 nM	12.7 nM		
O=C(NCCCCC1CCN(C(=O)c2ccc(OC(F)(F)F)cc2)CC1)c1ccc2nccn2c1 [N-[4-(1-{[4-(trifluoromethoxy)phenyl]carbonyl}piperidin-4-yl)butyl]imidazo[1,2-a]pyridine-6-carboxamide]	91 nM	100 to 1000 nM		
O=C(NCCCCC1CCN(C(=O)c2ccc(OC(F)(F)F)cc2)CC1)c1cc2ccncc2s1 [N-[4-(1-{[4-(trifluoromethoxy)phenyl]carbonyl}piperidin-4-yl)butyl]thieno[2,3-c]pyridine-2-carboxamide]	166 nM	100 to 1000 nM		
O=C(NCCCCC1CCN(S(=O)(=O)c2ccc(C(F)(F)F)cc2)CC1)c1cc2cnccc2[nH]1 [N-[4-(1-{[4-(trifluoromethyl)benzene]sulfonyl}piperidin-4-yl)butyl]-1H-pyrrolo[3,2-c]pyridine-2-carboxamide]	74.8 nM	23.3 nM		
O=C(NCCCCC1CCN(C(=O)c2ccc(C(F)(F)F)cc2)CC1)c1cc2cnccc2[nH]1 [N-[4-(1-{[4-(trifluoromethyl)phenyl]carbonyl}piperidin-4-yl)butyl]-1H-pyrrolo[3,2-c]pyridine-2-carboxamide]	164 nM	38.1 nM		
O=C(NCCCCC1CCN(C(=O)c2ccc(C(F)(F)F)cc2)CC1)c1ccc2nccn2c1 [N-[4-(1-{[4-(trifluoromethyl)phenyl]carbonyl}piperidin-4-yl)butyl]imidazo[1,2-a]pyridine-6-carboxamide]	152 nM	100 to 1000 nM		
O=C(NCCCCC1CCN(C(=O)c2ccc(C(F)(F)F)cc2)CC1)c1cc2ccncc2s1 [N-[4-(1-{[4-(trifluoromethyl)phenyl]carbonyl}piperidin-4-yl)butyl]thieno[2,3-c]pyridine-2-carboxamide]	305 nM	1000 nM		
O=C(NCCCCC1CCN(C(=O)c2cnccc2C(F)(F)F)CC1)c1cc2cnccc2[nH]1 [N-[4-(1-{[4-(trifluoromethyl)pyridin-3-yl]carbonyl}piperidin-4-yl)butyl]-1H-pyrrolo[3,2-c]pyridine-2-carboxamide]	39.8 nM	2.9 nM		
O=C(NCCCCC1CCN(C(=O)c2cnccc2C(F)(F)F)CC1)c1ccc2nccn2c1 [N-[4-(1-{[4-(trifluoromethyl)pyridin-3-yl]carbonyl}piperidin-4-yl)butyl]imidazo[1,2-a]pyridine-6-carboxamide]	15.6 nM	3.8 nM		
O=C(NCCCCC1CCN(C(=O)c2cnccc2C(F)(F)F)CC1)c1cc2ccncc2s1 [N-[4-(1-{[4-(trifluoromethyl)pyridin-3-yl]carbonyl}piperidin-4-yl)butyl]thieno[2,3-c]pyridine-2-carboxamide]	9.9 nM	6.9 nM		
COCc1ccc(C(=O)N2CCC(CCCCNC(=O)c3cc4cnccc4[nH]3)CC2)nc1 [N-[4-(1-{[5-(methoxymethyl)pyridin-2-yl]carbonyl}piperidin-4-yl)butyl]-1H-pyrrolo[3,2-c]pyridine-2-carboxamide]	31.1 nM	14.2 nM		
COCc1ccc(C(=O)N2CCC(CCCCNC(=O)c3ccc4nccn4c3)CC2)nc1 [N-[4-(1-{[5-(methoxymethyl)pyridin-2-yl]carbonyl}piperidin-4-yl)butyl]imidazo[1,2-a]pyridine-6-carboxamide]	57.4 nM	67.1 nM		
CC(C)c1ccc(C(=O)N2CCC(CCCCNC(=O)c3cc4cnccc4[nH]3)CC2)nc1 [N-[4-(1-{[5-(propan-2-yl)pyridin-2-yl]carbonyl}piperidin-4-yl)butyl]-1H-pyrrolo[3,2-c]pyridine-2-carboxamide]	163 nM	14.1 nM		
CC(C)c1ccc(C(=O)N2CCC(CCCCNC(=O)c3ccc4nccn4c3)CC2)nc1 [N-[4-(1-{[5-(propan-2-yl)pyridin-2-yl]carbonyl}piperidin-4-yl)butyl]imidazo[1,2-a]pyridine-6-carboxamide]	56.7 nM	52.9 nM		
CC(C)c1ccc(C(=O)N2CCC(CCCCNC(=O)c3cc4ccncc4s3)CC2)nc1 [N-[4-(1-{[5-(propan-2-yl)pyridin-2-yl]carbonyl}piperidin-4-yl)butyl]thieno[2,3-c]pyridine-2-carboxamide]	89.8 nM	100 to 1000 nM		
O=C(NCCCCC1CCN(C(=O)c2ccc(C(F)(F)F)cn2)CC1)c1cc2cnccc2[nH]1 [N-[4-(1-{[5-(trifluoromethyl)pyridin-2-yl]carbonyl}piperidin-4-yl)butyl]-1H-pyrrolo[3,2-c]pyridine-2-carboxamide]	137 nM	59.6 nM		
O=C(NCCCCC1CCN(C(=O)c2ccc(C(F)(F)F)cn2)CC1)c1cc2ccncc2s1 [N-[4-(1-{[5-(trifluoromethyl)pyridin-2-yl]carbonyl}piperidin-4-yl)butyl]thieno[2,3-c]pyridine-2-carboxamide]	91.8 nM	100 to 1000 nM		
O=C(NCCCCC1CCN(C(=O)c2ccc(N3CCOCC3)nc2)CC1)c1cc2cnccc2[nH]1 [N-[4-(1-{[6-(morpholin-4-yl)pyridin-3-yl]carbonyl}piperidin-4-yl)butyl]-1H-pyrrolo[3,2-c]pyridine-2-carboxamide]	64.7 nM	3.4 nM		
